Experimental data from patent publication USRE36854E, “Vitamin D compounds and method of preparing these compounds” (Duphar International Research B.V., priority 1997, dated 2000).

Assays:
rabbit kidney cells = test: Rabbit kidney cell assay (45Ca2+ reabsorption); type: cell-based; conditions: rabbit renal cell cultures; for increase in Ca^2+ -reabsorption: 10^-9 M
Procedure: Together with the intestine and the bone, the kidney is one of the major target organs of 1α,25-DHCC. The kidney plays an extremely important role in calcium homeostasis, since about 98% of the calcium has to be reabsorbed in the kidneys in order to prevent calcium loss and hypocalcemia. The vitamin D compounds according to the invention are dissolved in ethanol and tested in the rabbit kidney cell assay. In this assay, reabsorption of ^45 Ca^2+ is measured in monolayers of rabbit kidney cells. The cells are isolated by immunodissection of connecting tubules with the aid of monoclonal antibodies. […] The values in the Table represent the increase in Ca^2+ -reabsorption in mmol/cm^2 /h.

[1] = test system: human leukemic cell line HL-60; test: HL-60 cell differentiation assay (NBT reduction, non-specific esterase, May-Grunwald Giemsa); type: cell-based; conditions: for induction of differentiation and maturation of the HL-60 cells: 10^-12 to 10^-6 M; for induction of differentiation and maturation of the HL-60 cells / differentiation in the cytological test (non-specific esterase and May-Grunwald Giemsa) / NBT-reduction inducing capacity relative to 1α,25-DHCC (fold stronger): HL-60; for concentration range of optimum effect: HL-60, cytological test; for NBT-reduction inducing capacity relative to 1α,25-DHCC (fold stronger): FIGS. 3 and 4
Procedure: Vitamin D compounds according to the invention are dissolved in ethanol in concentrations ranging from 10^-12 to 10^-6 M and tested for their capacity to induce cell differentiation in a HL-60 assay. In this assay, morphologic and biochemical examination of the human leukemic cell line HL-60 is done, in order to establish whether cell differentiation has taken place.
Differentiation is expressed as the maturation parameters nitroblue tetrazolium (NBT) reduction, non-specific esterase, and as the percentage of mature cells beyond the myelocyte stage which is visible after staining with May-Grunwald Giemsa. After culturing with the known 1α,25-DHCC or with vitamin D compounds of the invention, the percentage of cells containing black formazan deposits is determined. An increase in the percentage of NBT reducing cells indicates an increase in cell differentiation.
Proliferation and vitality of the cell cultures are established by counting the number of cells and by the trypan blue exclusion method.

[2] = test system: intestinal cancer cell line Caco-2; test: Caco-2 assay for intestinal calcium transport (45Ca2+ influx); type: cell-based; conditions: for relative increase in Ca^2+ influx (1α,25-DHCC = 100): 10^-9 M
Procedure: The most well-known effect of 1α,25-DHCC is its action on the calcium metabolism, the calciotropic effect. Calciotropic target organs are the intestine, the bone and the kidney. The vitamin D compounds according to the invention are dissolved in ethanol and tested in the so-called Caco-2 assay for intestinal calcium (Ca) transport. In this assay, the vitamin D-induced influx of ^45 Ca^2+ is measured in monolayers of the intestinal cancer cell line Caco-2. This influx is corrected for the concentration-driven Ca^2+ influx and is a measure for the Ca transport across the intestinal wall. The Caco-2 cells are known to have vitamin D receptors. Increased intestinal calcium transport can be the first step leading to a rise in blood calcium levels (and eventually to hypercalcemia). […] The values in the table represent the relative increase in Ca^2 + influx (the value for 1α,25-DHCC is arbitrarily fixed at 100).

[3] = test system: HL-60 cells / intestinal Ca^2+ transport; test: Cell differentiation versus calciotropic effect (ratio of HL-60 NBT reduction to intestinal Ca2+ transport); type: cell-based, human; conditions: for ratio relative to DHCC: fraction normalised to 1α,25-DHCC = 1.00; for fraction (concentration for 50% NBT reduction in HL-60 cells / concentration for half-maximal increase in intestinal Ca^2+ transport): smaller ratio = higher relative cell differentiating capacity; for selectivity of action / better ratio than 1α,25-DHCC (fold): differentiation versus intestinal Ca transport
Text: Therefore, it should be very advantageous to develop compounds with a high selectivity of biological action. In other words, compounds in which the ratio between the induction of cell differentiation and calciotropic effects, e.g. the stimulation of intestinal Ca transport, is changed compared to 1α,25-DHCC. The ratio between differentiation-inducing capacity and the stimulation of intestinal Ca transport is defined as the fraction between the concentration at which 50% NBT reduction in HL-60 cells is obtained, and the concentration at which a half-maximal increase in intestinal Ca^2+ transport is reached. The smaller the ratio, the higher the relative cell differentiating capacity.

[4] = molecular target: T1, human vitamin D binding protein (DBP) (Homo sapiens, UniProt P02774); test: Affinity to vitamin D binding protein (competition with 3H-1α,25-DHCC); conditions: DBP purified from total human serum; 10^-11 to 2.5×10^-6 M; FIGS. 1 and 2
T1 sequence (P02774 17-474): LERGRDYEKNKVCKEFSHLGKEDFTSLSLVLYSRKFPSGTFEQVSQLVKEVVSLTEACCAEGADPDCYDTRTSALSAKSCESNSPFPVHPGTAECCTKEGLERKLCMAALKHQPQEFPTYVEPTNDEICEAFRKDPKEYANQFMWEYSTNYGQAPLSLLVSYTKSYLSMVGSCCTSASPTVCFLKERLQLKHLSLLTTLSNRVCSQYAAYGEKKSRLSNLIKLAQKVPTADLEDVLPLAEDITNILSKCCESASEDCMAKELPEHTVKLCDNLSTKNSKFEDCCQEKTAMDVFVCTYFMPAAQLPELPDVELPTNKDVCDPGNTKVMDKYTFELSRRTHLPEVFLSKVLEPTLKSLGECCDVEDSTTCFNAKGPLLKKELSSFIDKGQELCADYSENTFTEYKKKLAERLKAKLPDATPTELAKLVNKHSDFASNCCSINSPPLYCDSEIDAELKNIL
Procedure: Vitamin D binding protein (DBP) is the specific carrier for vitamin D and its metabolites in blood. The biological activity of vitamin D compounds depends on their binding to DBP, because strong binding to DBP will reduce the intracellular access to the VDR. Binding to the DBP may also influence the half-life of the vitamin D derivatives in circulation. Weak binders are rapidly matabolized, which is a favourable aspect in topical application. In the assay DBP is incubated with ^3 H-1α,25-DHCC and 1α,25-DHCC or with several vitamin D compounds according to the invention. To this purpose, the vitamin compounds are dissolved in ethanol in concentrations ranging from 10^-11 to 2.5×10^-6 M. The percentage bound/unbound ^3 H-1α,25-DHCC is then calculated. DBP is purified from total human serum. The results are shown in the appended FIGS. 1 and 2. FIGS. 1 and 2 show the binding of vitamin D compounds to human vitamin D binding protein. [^3 H]1α,25(OH)2 D3 =^3 H-1α,25-DHCC; in both Figures .circle-solid.=1α,25-DHCC (known compound); in FIG. 1 .tangle-solidup.=compound 13 and .gradient.=compound 14; in FIG. 2 Δ=compound 11.

[5] = molecular target: T2, calf thymus intracellular vitamin D receptor (VDR) (Bos taurus, UniProt Q28037); test: Affinity to intracellular vitamin D receptor (displacement of 3H-1α,25-DHCC); type: binding; conditions: 10^-13 to 10^-7 M
T2 construct: 3H-1α,25-DHCC displacement
T2 sequence (Q28037 1-426): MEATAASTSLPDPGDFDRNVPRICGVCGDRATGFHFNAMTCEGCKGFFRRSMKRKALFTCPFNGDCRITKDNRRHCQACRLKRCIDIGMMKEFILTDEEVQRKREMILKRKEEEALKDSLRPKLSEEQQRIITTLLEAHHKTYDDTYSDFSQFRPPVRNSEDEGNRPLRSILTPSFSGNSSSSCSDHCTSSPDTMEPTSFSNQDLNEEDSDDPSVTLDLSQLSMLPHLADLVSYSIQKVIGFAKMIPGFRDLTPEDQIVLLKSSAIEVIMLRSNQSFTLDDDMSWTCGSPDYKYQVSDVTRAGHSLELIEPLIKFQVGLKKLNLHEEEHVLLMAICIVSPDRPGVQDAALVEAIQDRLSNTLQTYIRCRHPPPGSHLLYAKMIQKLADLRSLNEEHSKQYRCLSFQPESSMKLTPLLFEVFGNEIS
Text: In this assay, ^3 H-1α,25-dihydroxycholecalciferol (^3 H-1α,25-DHCC), which is specifically bound to the VDR, is replaced by the tested compounds. Especially the tested compounds 11, 13 and 14 have a very high VDR-affinity. A high VDR-affinity is indicative for biologically active substances.

`C=C1/C(=C\C=C2/CCC[C@]3(C)[C@@H]([C@H](C)CCCC(C)(C)O)CC[C@@H]23)C[C@@H](O)C[C@@H]1O` [1α,25-DHCC, 1α,25-dihydroxycholecalciferol, reference compound] was tested, and the “increase in Ca^2+ -reabsorption” value (rabbit kidney cells) was 13.4 mmol/cm^2 /h, the “induction of differentiation and maturation of the HL-60 cells” value [1] was “induce differentiation and maturation” and the “relative increase in Ca^2+ influx (1α,25-DHCC = 100)” value (shortened to “relative increase in Ca^2+ influx”) ([2]; experiment 1) was 100. For the same molecule, the “relative increase in Ca^2+ influx” value ([2]; experiment 2) was 100, the “ratio relative to DHCC” value [3] was 1.00 and the “fraction (concentration for 50% NBT reduction in HL-60 cells / concentration for half-maximal increase in intestinal Ca^2+ transport)” value [3] was 107.
`C=C1/C(=C\C=C2/CCC[C@@]3(C)C2CCC3[C@H](C)CCCC(O)(C2CC2)C2CC2)C[C@@H](O)C[C@@H]1O` (stereo partly drawn) [Compound 11] was tested, and the “stimulation of renal Ca-reabsorption compared with compound 12 and 1α,25-DHCC” value (rabbit kidney cells) was “weaker stimulators”, the “increase in Ca^2+ -reabsorption” value (rabbit kidney cells) was 2.4 mmol/cm^2 /h and the “differentiation in the cytological test (non-specific esterase and May-Grunwald Giemsa)” value [1] was “good differentiators”. For the same molecule, the “concentration range of optimum effect” value [1] was 10^-8 to 10^-7 M, the “induction of differentiation and maturation of the HL-60 cells” value [1] was “induce differentiation and maturation” and the “NBT-reduction inducing capacity relative to 1α,25-DHCC (fold stronger)” value [1] was “about 5 ×”. For the same molecule, the “stimulation of intestinal calcium absorption compared with 1α,25-DHCC” value [2] was “weaker stimulators”, the “relative increase in Ca^2+ influx” value ([2]; experiment 1) was 79 and the “binding to the DBP, compared to the known 1α,25-DHCC” value [4] was “bind rather weakly”. For the same molecule, the VDR-affinity [5] was “very high”, the “selectivity of action / better ratio than 1α,25-DHCC (fold)” value [3] was 8 × and the “ratio relative to DHCC” value [3] was 0.13. For the same molecule, the “fraction (concentration for 50% NBT reduction in HL-60 cells / concentration for half-maximal increase in intestinal Ca^2+ transport)” value [3] was 14.4.
With `C=C1/C(=C\C=C2/CCC[C@@]3(C)C2CCC3[C@H](C)CCCC(O)(C(C)(C)C)C(C)(C)C)C[C@@H](O)C[C@@H]1O` (stereo partly drawn) [Compound 12] the “increase in Ca^2+ -reabsorption” value (rabbit kidney cells) was 12.8 mmol/cm^2 /h, the “induction of differentiation and maturation of the HL-60 cells” value [1] was “induce differentiation and maturation” and the “NBT-reduction inducing capacity relative to 1α,25-DHCC (fold stronger)” value [1] was “about 5 ×”. The “relative increase in Ca^2+ influx” value ([2]; experiment 1) was 99, the “selectivity of action / better ratio than 1α,25-DHCC (fold)” value [3] was 4 × and the “ratio relative to DHCC” value [3] was 0.28. For the same molecule, the “fraction (concentration for 50% NBT reduction in HL-60 cells / concentration for half-maximal increase in intestinal Ca^2+ transport)” value [3] was 29.7.
For `C=C1/C(=C\C=C2/CCC[C@@]3(C)C2CCC3[C@H](C)CCCC(O)(C(C)C)C(C)C)C[C@@H](O)C[C@@H]1O` (stereo partly drawn) [Compound 13], the “stimulation of renal Ca-reabsorption compared with compound 12 and 1α,25-DHCC” value (rabbit kidney cells) was “weaker stimulators”, the “increase in Ca^2+ -reabsorption” value (rabbit kidney cells) was -3.7 mmol/cm^2 /h and the “differentiation in the cytological test (non-specific esterase and May-Grunwald Giemsa)” value [1] was “good differentiators”. For the same molecule, the “concentration range of optimum effect” value [1] was 10^-8 to 10^-7 M, the “induction of differentiation and maturation of the HL-60 cells” value [1] was “induce differentiation and maturation” and the “NBT-reduction inducing capacity relative to 1α,25-DHCC (fold stronger)” value [1] was “about 10 ×”. The “stimulation of intestinal calcium absorption compared with 1α,25-DHCC” value [2] was “weaker stimulators”, the “relative increase in Ca^2+ influx” value ([2]; experiment 2) was 65 and the “binding to the DBP, compared to the known 1α,25-DHCC” value [4] was “very weak binder”. The VDR-affinity [5] was “very high”, the “selectivity of action / better ratio than 1α,25-DHCC (fold)” value [3] was 50 × and the “ratio relative to DHCC” value [3] was 0.02. The “fraction (concentration for 50% NBT reduction in HL-60 cells / concentration for half-maximal increase in intestinal Ca^2+ transport)” value [3] was 2.5.
With `C=C1/C(=C\C=C2/CCC[C@@]3(CC)C2CCC3[C@H](C)CCCC(O)(C(C)C)C(C)C)C[C@@H](O)C[C@@H]1O` (stereo partly drawn) [Compound 14] the “induction of differentiation and maturation of the HL-60 cells” value [1] was “induce differentiation and maturation”, the “NBT-reduction inducing capacity relative to 1α,25-DHCC (fold stronger)” value [1] was “about 10 ×” and the “stimulation of intestinal calcium absorption compared with 1α,25-DHCC” value [2] was “weaker stimulators”. The “relative increase in Ca^2+ influx” value ([2]; experiment 2) was 78, the “binding to the DBP, compared to the known 1α,25-DHCC” value [4] was “bind rather weakly” and the VDR-affinity [5] was “very high”. For the same molecule, the “selectivity of action / better ratio than 1α,25-DHCC (fold)” value [3] was 50 ×, the “ratio relative to DHCC” value [3] was 0.02 and the “fraction (concentration for 50% NBT reduction in HL-60 cells / concentration for half-maximal increase in intestinal Ca^2+ transport)” value [3] was 2.6.
